The test system of series [1] is HepG2. The series can be described thus: Cytotoxicity against human HepG2 cells assessed as reduction in cell viability at 50 uM after 24 hrs by MTT assay. Particulars: hepg2, 24 h. It is filed as cell-based. (Tetrazolium assays rely on reduction of a dye to a coloured formazan, in cell work by metabolically active cells.)
Series [2] has as its system Plasmodium falciparum. Briefly: Growth inhibition of schizont stage Plasmodium falciparum 3D7 infected in human erythrocytes at 50 uM after 46 hrs by ethidium bromide staining based flow cytometric analysis relative to control. It is filed as functional. Particulars: 3D7, 46 h, read-out: GI. (Flow cytometry measures light scatter and fluorescence of single cells or particles in a stream.)

For series [3], the system named is Plasmodium falciparum 3D7. The series can be described thus: Inhibition of P-type cation ATPase ATP4 in trophozoite stage of Plasmodium falciparum 3D7 infected in human erythrocytes assessed as increase in Na+/- levels at 50 uM by sodium green dye based microscopic analysis. It counts as cell-based.
Series [4] concerns Plasmodium falciparum. Briefly: Induction of mitochondrial membrane potential loss in trophozoite stage of Plasmodium falciparum 3D7 infected in human erythrocytes assessed as decrease in JC1 red to JC1 green ratio at 50 uM by JC1 staining based microscopic analysis. It counts as functional, organism-based.
Series [5] has as its system Plasmodium falciparum. Briefly: Growth inhibition of schizont stage Plasmodium falciparum 3D7 infected in human erythrocytes at 10 uM after 46 hrs by ethidium bromide staining based flow cytometric analysis relative to control. It counts as functional. Conditions: 3D7, 46 h, read-out: GI.
The subject of series [6] is Plasmodium falciparum. Briefly: Antiplasmodial activity against late trophozoite stage of Plasmodium falciparum 3D7 infected in human erythrocytes measured after 46 hrs by ethidium bromide staining based flow cytometric analysis. It is filed as functional, organism-based. Conditions: for EC50: 3D7, 46 h.
The subject of series [7] is Plasmodium falciparum. Briefly: Ratio of EC50 for antiplasmodial activity against late trophozoite stage of Plasmodium falciparum 3D7 infected in human erythrocytes to EC50 for antiplasmodial activity against late trophozoite stage of Plasmodium falciparum 3D7 infected in human erythrocytes in presence of graphene oxide 2. It is filed as functional.
The test system of series [8] is Plasmodium falciparum. Briefly: Antiplasmodial activity against late trophozoite stage of Plasmodium falciparum 3D7 infected in human erythrocytes measured after 46 hrs in presence of graphene oxide 1 by ethidium bromide staining based flow cytometric analysis. It counts as functional, organism-based. Conditions: 3D7, 46 h.
In series [9] the test system is Plasmodium falciparum 3D7. The series can be described thus: Inhibition of P-type cation ATPase ATP4 in trophozoite stage of Plasmodium falciparum 3D7 infected in human erythrocytes assessed as swelling of intraerythrocytic parasites by measuring diameter of parasitized RBC at 50 uM after 4 hrs by sodium green dye based microscopic analysis (reference value: 5.03 micrometer). It counts as cell-based.

Series [10] concerns Plasmodium falciparum 3D7. Briefly: Inhibition of P-type cation ATPase ATP4 in trophozoite stage of Plasmodium falciparum 3D7 infected in human erythrocytes assessed as swelling of intraerythrocytic parasites by measuring diameter of parasite at 50 uM after 4 hrs by sodium green dye based microscopic analysis (reference value: 3.5 micrometer). It is filed as cell-based.
Series [11] deals with Plasmodium falciparum. The series can be described thus: Antiplasmodial activity against late trophozoite stage of Plasmodium falciparum 3D7 infected in human erythrocytes measured after 46 hrs in presence of graphene oxide 2 by ethidium bromide staining based flow cytometric analysis. It is filed as functional, organism-based. Particulars: 3D7, 46 h.

Molecules are shown by their SMILES. Active and inactive are the calls of the source. The rule behind the calls is not given here.

On to `C=CCc1ccc(O)c(OC)c1` [EUGENOL], for which the Activity result in [1] is recorded as “Non-Toxic”.
Same read-out and setting: the entry for `C/C=C/c1ccc(O)c(OC)c1` is “Non-Toxic”.
Consider `C/C=C/c1cc2c(c(OC)c1)OCN(Cc1ccco1)C2`, for which the Activity result is “Non-Toxic” in series [1], “Dose-dependent effect” in [6], 6.3 µm in series [9] and 4.4 µm in [10]. Further, the inhibition of growth at 50 µM in series [2] was determined as 73%. Further, the inhibition result in series [3] is “Active”. Further, in [4], the outcome was Active. For the same molecule, in [5], the inhibition of growth at 10 µM came to 14.9%. In addition, the figures for the EC50 in [6], in [8] and in [11] were 17.5 µM, 7.19 µM and 0.49 µM, respectively. For the same molecule, the “Ratio EC50” value in series [7] was determined as 36.
For `C=CCc1cc2c(c(OC)c1)OCN(Cc1ccco1)C2`, the Activity entry in series [1] is recorded as “Non-Toxic”. Also, the inhibition of growth at 50 µM in series [2] was 58.5%. Moreover, the inhibition result in [3] is “Active”. The result in series [4] was Active. Further, in series [5], the inhibition of growth at 10 µM was determined as 4.7%. Further, in series [6], the Activity result was “Dose-dependent effect” and the EC50 is 22 µM.

What is called EC50 is the midpoint of the concentration-response curve.

The values above are taken from ChEMBL document CHEMBL4118116, “Benzoxazine derivatives of phytophenols show anti-plasmodial activity via sodium homeostasis disruption” (Bioorg Med Chem Lett, 2018).
